Experiment: Single ascending dose trial: adverse event and safety monitoring
Assay type: in vivo, human
Protocol: A single-ascending dose clinical trial of Compound 1 (potassium salt) was performed.

N#Cc1nn(-c2cc(Cl)c(Oc3n[nH]c(=O)c4ccccc34)c(Cl)c2)c(=O)[nH]c1=O [Compound 1, 2-(3,5-dichloro-4-((4-oxo-3,4-dihydrophthalazin-1-yl)oxy)phenyl)-3,5-dioxo-2,3,4,5-tetrahydro-1,2,4-triazine-6-nitrile]
Heart rates (24 hours after single dose): remained stable and within the normal range
plasma AUC0-∞ without any significant side effects (single ascending dose studies): ≤ 50,000 ng*hg/mL
overall safety and tolerability (single ascending doses up to 60 mg): overall safe and well-tolerated
TSH, free T3, and free T4 levels (single doses 3-60 mg): remained within the normal range
bilirubin levels above the normal range (single doses 3-60 mg): no subjects
cardiac biomarkers (troponin I, CK-MB) or other clinical safety tests (single doses 3-60 mg): no notable changes
cardiac related AEs (e.g., tachycardia, arrythmias) (single doses 3-60 mg): No cardiac related AEs
increases in ALT more than 2-times ULN (single doses 3-60 mg): No subjects
severity of adverse events (single doses 3-60 mg): mild or moderate in severity
vital signs or ECG parameters (single doses 3-60 mg): no remarkable changes

Reference: patent US20240293416A1, “TREATMENT OF LIVER DISORDERS WITH A THR-ß AGONIST” (Terns Pharmaceuticals, Inc., priority 2021, published 2024)
